Test results taken from ChEMBL document CHEMBL1124939, “Synthesis of thromboxane receptor antagonists with bicyclo[3.1.0]hexane ring systems” (J Med Chem, 1990).

How the values were obtained:
Type in all cases: functional
Rattus norvegicus [1] = species on record: Rattus norvegicus; experiment: The partial agonistic activity (shape change of rat WP) induced by test compound at 1 uM was calibrated for that of S-145
Oryctolagus cuniculus = species on record: Oryctolagus cuniculus; experiment: Tested for the inhibitory activity against aggregation of rabbit platelet-rich plasma (PRP) induced by 500 uM of arachidonic acid.
Rattus norvegicus [2] = species on record: Rattus norvegicus; experiment: Tested for the inhibitory activity against aggregation of rat washed platelets (WP) induced by 4 micro g/mL of collagen.

IC50 (Oryctolagus cuniculus)	IC50 (Rattus norvegicus [2])	SMILES	Relative agonist activity (Rattus norvegicus [1])
391000 nM	100 nM	O=C([O-])CCC/C=C\C[C@H]1C2OC2C[C@@H]1NS(=O)(=O)c1ccccc1.[Na+] (mixture of isomers)	0
44000 nM	4.3 nM	CC1(C)[C@@H]2[C@H](C/C=C\CCCC(=O)[O-])[C@@H](NS(=O)(=O)c3ccccc3)C[C@@H]21.[Na+] (racemic)	22
2600 nM	4 nM	O=C([O-])CCC/C=C\C[C@H]1C2O[C@H]2C[C@@H]1NS(=O)(=O)c1ccccc1.[Na+] (mixture of isomers)	82
37800 nM	25 nM	O=C([O-])CCC/C=C\C[C@H]1C2CC2C[C@H]1NS(=O)(=O)c1ccccc1.[Na+] (mixture of isomers)	33
432000 nM	4.1 nM	CC1(C)[C@H]2[C@H](C/C=C\CCCC(=O)[O-])[C@@H](NS(=O)(=O)c3ccccc3)C[C@H]21.[Na+] (racemic)	11
11300 nM	12.5 nM	O=C([O-])CCC/C=C\C[C@H]1[C@@H]2C[C@@H]2C[C@@H]1NS(=O)(=O)c1ccccc1.[Na+] (racemic)	22
49100 nM	23 nM	O=C([O-])CCC/C=C\C[C@H]1C2O[C@H]2C[C@H]1NS(=O)(=O)c1ccccc1.[Na+] (mixture of isomers)	26
1000 nM	1 nM	O=C(O)CCC/C=C\C[C@H]1[C@@H]2CCC(C2)[C@@H]1NS(=O)(=O)c1ccccc1	100
5300 nM	8.3 nM	O=C([O-])CCC/C=C\C[C@H]1[C@H]2C[C@H]2C[C@@H]1NS(=O)(=O)c1ccccc1.[Na+] (racemic)	67

SMILES	IC50 (Oryctolagus cuniculus)	IC50 (Rattus norvegicus [2])	Relative agonist activity (Rattus norvegicus [1])
O=C([O-])CCC/C=C\C[C@H]1[C@H]2S[C@H]2C[C@@H]1NS(=O)(=O)c1ccccc1.[Na+] (racemic)	11300 nM	2.9 nM	74
O=C([O-])CCC/C=C\C[C@H]1[C@@H]2S[C@@H]2C[C@@H]1NS(=O)(=O)c1ccccc1.[Na+] (racemic)	178000 nM	10 nM	0
